Data from PubChem BioAssay (NCI).
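Protocol summary: plate cells (96-well), add compound at 5 concentrations, incubate 48 h, interpolate endpoints linearly. At the GI50, growth is halved. Definition used: TGI = concentration required for complete inhibition of growth.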

Columns and labels:
Test in all cases: NCI anticancer screen, dose series, 48 h
[1] = system: CCRF-CEM leukemia
[2] = system: SK-MEL-2 melanoma
[3] = system: SNB-75 CNS
[4] = system: MCF7 breast
[5] = system: HT29 colon
[6] = system: DU-145 prostate
[7] = system: RPMI-8226 leukemia
[8] = system: OVCAR-4 ovarian
[9] = system: PC-3 prostate
[10] = system: NCI-H460 lung
[11] = system: HCT-116 colon
[12] = system: COLO 205 colon
[13] = system: CAKI-1 renal
[14] = system: ACHN renal
[15] = system: OVCAR-5 ovarian
[16] = system: HCC-2998 colon
[17] = system: SN12C renal
[18] = system: HOP-92 NSCLC
[19] = system: SK-OV-3 ovarian
[20] = system: MOLT-4 leukemia
[21] = system: NCI-H23 lung
[22] = system: HOP-62 NSCLC
[23] = system: EKVX NSCLC
[24] = system: SW-620 colon
[25] = system: KM12 colon
[26] = system: TK-10 renal
[27] = system: HCT-15 colon
[28] = system: SF-539 CNS
[29] = system: NCI/ADR-RES ovarian
[30] = system: OVCAR-8 ovarian
[31] = system: NCI-H522 lung
[32] = system: U251 CNS
[33] = system: OVCAR-3 ovarian
[34] = system: MDA-MB-231 breast
[35] = system: UACC-62 melanoma
[36] = system: UACC-257 melanoma
[37] = system: A549 NSCLC
[38] = system: SK-MEL-28 melanoma
[39] = system: IGROV1 ovarian
[40] = system: HS 578T breast
[41] = system: LOX IMVI melanoma
[42] = system: SF-268 CNS
[43] = system: SNB-19 CNS
[44] = system: T-47D breast
[45] = system: BT-549 breast
[46] = system: A498 renal
[47] = system: M14 melanoma
[48] = system: K-562 leukemia
[49] = system: NCI-H226 lung
[50] = system: SF-295 CNS
[51] = system: MALME-3M melanoma
[52] = system: HL-60(TB) leukemia
[53] = system: SK-MEL-5 melanoma
[54] = system: RXF 393 renal
[55] = system: 786-0 renal
[56] = system: MDA-MB-435
[57] = system: UO-31 renal

Which GI50 [1] does the source give for COC1C(CO)OC(n2c3ccccc3c3c4c(c5c6ccccc6[nH]c5c32)C(=O)NC4=O)C(O)C1O (centres undefined) here?
Its GI50 is < 10 nM.

And the TGI [1]?
Its TGI is 2420 nM.

What about the GI50 [2] of the same compound?
The GI50 was 234 nM.

What about the TGI [2] of the same compound?
The TGI was 856 nM.

What about the GI50 [3] of the same compound?
The GI50 was 158 nM.

What about the TGI [3] of the same compound?
Its TGI is 3850 nM.

And the GI50 [4]?
Its GI50 is 33.6 nM.

And the TGI [4]?
Its TGI is 2070 nM.

What about the GI50 [5] of the same compound?
Its GI50 is 230 nM.

And the TGI [5]?
The TGI was > 37700 nM.

And the GI50 [6]?
The GI50 was 43.9 nM.

What about the TGI [6] of the same compound?
Its TGI is 572 nM.

And the GI50 [7]?
The GI50 was 2220 nM.

What about the TGI [7] of the same compound?
The TGI was 25200 nM.

What about the GI50 [8] of the same compound?
The GI50 was 342 nM.

And the TGI [8]?
Its TGI is 17700 nM.

What about the GI50 [9] of the same compound?
Its GI50 is 206 nM.

What about the TGI [9] of the same compound?
Its TGI is 7060 nM.

And the GI50 [10]?
The GI50 was 848 nM.

What about the TGI [10] of the same compound?
Its TGI is 6610 nM.

What about the GI50 [11] of the same compound?
The GI50 was 16 nM.

And the TGI [11]?
Its TGI is 146 nM.

And the GI50 [12]?
The GI50 was < 36 nM.

And the TGI [12]?
Its TGI is 2140 nM.

What about the GI50 [13] of the same compound?
Its GI50 is < 18.4 nM.

And the TGI [13]?
Its TGI is 93.7 nM.

What about the GI50 [14] of the same compound?
The GI50 was < 19.1 nM.

What about the TGI [14] of the same compound?
The TGI was 92.8 nM.

What about the GI50 [15] of the same compound?
The GI50 was 270 nM.

And the TGI [15]?
The TGI was 2240 nM.

What about the GI50 [16] of the same compound?
Its GI50 is 127 nM.

And the TGI [16]?
Its TGI is 1500 nM.

What about the GI50 [17] of the same compound?
Its GI50 is < 18.7 nM.

And the TGI [17]?
The TGI was 111 nM.

And the GI50 [18]?
The GI50 was 79.2 nM.

What about the TGI [18] of the same compound?
The TGI was 1220 nM.

And the GI50 [19]?
Its GI50 is 87.6 nM.

What about the TGI [19] of the same compound?
The TGI was 2220 nM.

What about the GI50 [20] of the same compound?
Its GI50 is 20.2 nM.

What about the GI50 [21] of the same compound?
Its GI50 is 95.1 nM.

What about the TGI [21] of the same compound?
Its TGI is 1120 nM.

What about the GI50 [22] of the same compound?
Its GI50 is 51.4 nM.

And the TGI [22]?
The TGI was 1200 nM.

What about the GI50 [23] of the same compound?
Its GI50 is 326 nM.

And the TGI [23]?
Its TGI is 2340 nM.

And the GI50 [24]?
The GI50 was < 10 nM.

And the TGI [24]?
Its TGI is 616 nM.

What about the GI50 [25] of the same compound?
Its GI50 is 17.6 nM.

What about the TGI [25] of the same compound?
Its TGI is 550 nM.

And the GI50 [26]?
The GI50 was 143 nM.

What about the TGI [26] of the same compound?
The TGI was 548 nM.

And the GI50 [27]?
The GI50 was 524 nM.

And the TGI [27]?
The TGI was > 31900 nM.

What about the GI50 [28] of the same compound?
The GI50 was < 10 nM.

What about the TGI [28] of the same compound?
The TGI was 35.9 nM.

What about the GI50 [29] of the same compound?
The GI50 was 1370 nM.

What about the TGI [29] of the same compound?
Its TGI is > 43700 nM.

And the GI50 [30]?
The GI50 was 32.7 nM.

And the TGI [30]?
Its TGI is 1480 nM.

And the GI50 [31]?
The GI50 was < 10 nM.

What about the TGI [31] of the same compound?
The TGI was 153 nM.

What about the GI50 [32] of the same compound?
Its GI50 is < 10 nM.

And the TGI [32]?
Its TGI is 141 nM.

And the GI50 [33]?
The GI50 was 78.5 nM.

And the TGI [33]?
The TGI was 369 nM.

And the GI50 [34]?
The GI50 was 59.5 nM.

What about the TGI [34] of the same compound?
The TGI was 343 nM.

And the GI50 [35]?
The GI50 was 16.9 nM.

What about the TGI [35] of the same compound?
Its TGI is 90.2 nM.

What about the GI50 [36] of the same compound?
Its GI50 is 103 nM.

What about the GI50 [37] of the same compound?
Its GI50 is 621 nM.

And the GI50 [38]?
Its GI50 is 156 nM.

What about the TGI [38] of the same compound?
Its TGI is 8490 nM.

What about the GI50 [39] of the same compound?
The GI50 was 84.4 nM.

What about the TGI [39] of the same compound?
Its TGI is 3490 nM.

And the GI50 [40]?
Its GI50 is 180 nM.

What about the TGI [40] of the same compound?
Its TGI is 757 nM.

And the GI50 [41]?
Its GI50 is < 10 nM.

What about the TGI [41] of the same compound?
The TGI was 35.2 nM.

What about the GI50 [42] of the same compound?
Its GI50 is 18.9 nM.

What about the TGI [42] of the same compound?
Its TGI is 586 nM.

And the GI50 [43]?
Its GI50 is 27.7 nM.

What about the TGI [43] of the same compound?
Its TGI is 6640 nM.

What about the GI50 [44] of the same compound?
The GI50 was < 12.6 nM.

What about the TGI [44] of the same compound?
Its TGI is 117 nM.

And the GI50 [45]?
Its GI50 is 120 nM.

And the TGI [45]?
The TGI was 1850 nM.

What about the GI50 [46] of the same compound?
Its GI50 is 16 nM.

And the TGI [46]?
Its TGI is 99.8 nM.

What about the GI50 [47] of the same compound?
The GI50 was 44.1 nM.

And the TGI [47]?
The TGI was 347 nM.

And the GI50 [48]?
Its GI50 is < 14.5 nM.

And the GI50 [49]?
The GI50 was 11.3 nM.

And the TGI [49]?
Its TGI is 108 nM.

And the GI50 [50]?
Its GI50 is 129 nM.

What about the TGI [50] of the same compound?
Its TGI is 673 nM.

What about the GI50 [51] of the same compound?
The GI50 was < 18 nM.

And the GI50 [52]?
The GI50 was 11.4 nM.

What about the TGI [52] of the same compound?
Its TGI is 34 nM.

What about the GI50 [53] of the same compound?
Its GI50 is 13.3 nM.

And the TGI [53]?
Its TGI is 60.8 nM.

And the GI50 [54]?
Its GI50 is 114 nM.

And the TGI [54]?
The TGI was 877 nM.

What about the GI50 [55] of the same compound?
Its GI50 is 46.7 nM.

What about the TGI [55] of the same compound?
The TGI was 1120 nM.

What about the GI50 [56] of the same compound?
The GI50 was 63.3 nM.

What about the TGI [56] of the same compound?
Its TGI is 901 nM.

What about the GI50 [57] of the same compound?
The GI50 was 173 nM.

And the TGI [57]?
Its TGI is 676 nM.
